Assay results from ChEMBL document CHEMBL2311443, “Exploring amino acids derivatives as potent, selective, and direct agonists of sphingosine-1-phosphate receptor subtype-1” (Bioorg Med Chem Lett, 2013).

Columns and labels:
Homo sapiens [1] = species: Homo sapiens; assay: Selectivity index, ratio of IC50 for human S1P3 to IC50 for human S1P1
[2] = biological target: T1, Sphingosine 1-phosphate receptor 1 (Homo sapiens, UniProt P21453); assay: Agonist activity at human S1P1 receptor expressed in HEK293T cells assessed as stimulation of [35S]GTPgammaS binding; format: functional, cell-based, HEK-293T
T1 sequence (P21453 whole entry): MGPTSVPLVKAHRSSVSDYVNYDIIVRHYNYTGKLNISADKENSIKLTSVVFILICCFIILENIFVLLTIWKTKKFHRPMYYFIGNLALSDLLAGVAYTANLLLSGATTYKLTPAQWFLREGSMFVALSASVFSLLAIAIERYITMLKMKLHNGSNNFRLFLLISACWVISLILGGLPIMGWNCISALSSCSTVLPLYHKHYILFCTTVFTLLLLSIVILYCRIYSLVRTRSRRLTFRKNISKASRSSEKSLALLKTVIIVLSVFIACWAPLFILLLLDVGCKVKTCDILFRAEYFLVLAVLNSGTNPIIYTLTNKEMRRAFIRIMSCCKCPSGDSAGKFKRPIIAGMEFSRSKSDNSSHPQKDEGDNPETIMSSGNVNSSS

Mus musculus [3] = assay: Immunomodulatory activity in C57Bl/6 mouse assessed as induction of lymphopenia at 10 mg/kg, po measured after 6 hrs; format: functional
[4] = biological target: T2, Sphingosine 1-phosphate receptor 3 (Homo sapiens, UniProt Q99500); assay: Displacement of [33P]S1P from human S1P3 receptor expressed in HEK293T cells after 1 hr by liquid scintillation counting analysis; format: cell-based, HEK-293T
T2 sequence (Q99500 whole entry): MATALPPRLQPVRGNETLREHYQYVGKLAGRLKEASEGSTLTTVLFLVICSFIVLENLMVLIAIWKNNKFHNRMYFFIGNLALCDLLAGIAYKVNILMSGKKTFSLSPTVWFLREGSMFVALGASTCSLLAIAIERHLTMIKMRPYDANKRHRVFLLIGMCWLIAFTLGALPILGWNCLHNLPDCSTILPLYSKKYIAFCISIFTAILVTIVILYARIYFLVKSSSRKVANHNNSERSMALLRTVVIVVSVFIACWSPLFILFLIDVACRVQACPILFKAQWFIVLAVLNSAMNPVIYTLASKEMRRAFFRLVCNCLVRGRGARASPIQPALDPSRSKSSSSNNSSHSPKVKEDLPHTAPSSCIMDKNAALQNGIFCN

Homo sapiens [5] = species: Homo sapiens; assay: Selectivity index, ratio of EC50 for human S1P3 to EC50 for human S1P1
[6] = biological target: T1, Sphingosine 1-phosphate receptor 1; assay: Displacement of [33P]S1P from human S1P1 receptor expressed in HEK293T cells after 1 hr by liquid scintillation counting analysis; format: cell-based, HEK-293T
[7] = biological target: T2, Sphingosine 1-phosphate receptor 3; assay: Agonist activity at human S1P3 receptor expressed in HEK293T cells assessed as stimulation of [35S]GTPgammaS binding; format: functional, cell-based, HEK-293T
Mus musculus [8] = assay: Immunomodulatory activity in C57Bl/6 mouse assessed as induction of lymphopenia at 20 mg/kg, iv measured after 6 hrs; format: functional
Mus musculus [9] = assay: Immunomodulatory activity in C57Bl/6 mouse assessed as induction of lymphopenia at 1 mg/kg, po measured after 6 hrs; format: functional

Structure (SMILES)	Ratio IC50 (Homo sapiens [1])	EC50 [2] [nM]	Activity (Mus musculus [3]) [%]	IC50 [4] [nM]	Ratio EC50 (Homo sapiens [5])	IC50 [6] [nM]	EC50 [7] [nM]	Activity (Mus musculus [8]) [%]	Activity (Mus musculus [9]) [%]
CCCCCCCCOc1ccc(NC(=O)[C@@H](N)CC(=O)O)cc1	73	164	57	1050	11	14.4	1800	–	–
CCCCCCCCOc1ccc(NC(=O)[C@@](C)(N)CCC(=O)O)cc1	–	–	–	10000	–	77	–	–	–
CCCCCCCCc1ccc(NC(=O)[C@@](C)(N)CC(=O)O)cc1C(F)(F)F	–	–	–	> 10000	–	370	–	–	–
CCCCCCCCOc1ccc(NC(=O)[C@@H](N)CCC(=O)O)cc1	–	–	44	10000	–	92	–	–	–
N[C@@H](CC(=O)O)c1nc(-c2ccc(OCc3ccc(-c4ccccc4)cc3)c(C(F)(F)F)c2)c[nH]1	–	161	–	> 10000	> 18.6	17	> 3000	–	–
CCCCCCCCOc1ccc(NC(=O)[C@@H](N)CC(=O)O)cc1C(F)(F)F	–	231	33	> 10000	> 13	53	> 3000	60	–
C[C@](N)(CC(=O)O)c1nc(-c2ccc(OCc3ccc(-c4ccccc4)cc3)c(C(F)(F)F)c2)c[nH]1	–	700	–	> 10000	> 4	82	> 3000	–	–
CCCCCCCCc1ccc(CCC(N)(CO)CO)cc1 [FINGOLIMOD]	–	–	–	–	–	–	–	–	80
CCCCCCCCOc1ccc(NC(=O)[C@@](C)(N)CC(=O)O)cc1C(F)(F)F	–	135	24	> 10000	> 22	95	> 3000	–	–
CCCCCCCCOc1ccc(NC(=O)[C@@](C)(N)/C=C/C(=O)O)cc1	–	–	25	10000	–	74	–	–	–
O=C(O)CCc1nc(-c2ccc(OCc3ccc(-c4ccccc4)cc3)c(C(F)(F)F)c2)c[nH]1	–	–	–	> 10000	–	3000	–	–	–
